Measurements taken from the supplement of paper PMC10307832.

Assays:
Experiment in all cases: relative viability (nuclei count vs DMSO), 5 days (fraction); higher = more cells survive
[1] = compound: CCCS(=O)(=O)Nc1ccc(F)c(C(=O)c2c[nH]c3ncc(-c4ccc(Cl)cc4)cc23)c1F [Vemurafenib] + Cc1nc(NC(=O)N2CCC[C@H]2C(N)=O)sc1-c1ccnc(C(C)(C)C(F)(F)F)c1 [Alpelisib] (partner 2 µM)
Summary of the method: (§1)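 Lung cancer cell lines in 1536-well plates got either a single drug or a fixed anchor-drug dose together with five library-drug doses (not always all listed) in √10 steps, by pin tool, on the day after seeding. Nuclei were counted after 5 days, and relative viability is the treated-to-vehicle ratio of nuclei counts. Values are medians of duplicate plates.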

[2] = compound: COc1cccc2cc(-c3nc([C@H]4CC[C@H](C(=O)O)CC4)n4ncnc(N)c34)[nH]c12 [OSI-027] + CS(=O)(=O)N1CCN(Cc2cc3nc(-c4cccc5[nH]ncc45)nc(N4CCOCC4)c3s2)CC1 [Pictilisib] (partner 1 µM)
Summary of the method: as §1

[3] = compound: Cc1nc(NC(=O)N2CCC[C@H]2C(N)=O)sc1-c1ccnc(C(C)(C)C(F)(F)F)c1 [Alpelisib] + CC(=O)Nc1cccc(-n2c(=O)n(C3CC3)c(=O)c3c(Nc4ccc(I)cc4F)n(C)c(=O)c(C)c32)c1 [Trametinib] (partner 0.02 µM)
Summary of the method: as §1

[4] = compound: Cc1nc(NC(=O)N2CCC[C@H]2C(N)=O)sc1-c1ccnc(C(C)(C)C(F)(F)F)c1 [Alpelisib] + Nc1nc2[nH]cc(CCc3ccc(C(=O)N[C@@H](CCC(=O)O)C(=O)O)cc3)c2c(=O)[nH]1 [Pemetrexed] (partner 0.2 µM)
Summary of the method: as §1

## NCI-H322M
[1]; first compound 0.03162 µM
  relative viability: 0.845
[1]; first compound 0.3162 µM
  relative viability: 0.872
[1]; first compound 1 µM
  relative viability: 0.707
[2]; first compound 0.01 µM
  relative viability: 0.574
[2]; first compound 0.03162 µM
  relative viability: 0.443
[2]; first compound 0.1 µM
  relative viability: 0.485
[2]; first compound 0.3162 µM
  relative viability: 0.416
[2]; first compound 1 µM
  relative viability: 0.405
[3]; first compound 0.04 µM
  relative viability: 0.516
[3]; first compound 0.1265 µM
  relative viability: 0.497
[3]; first compound 0.4 µM
  relative viability: 0.49
[3]; first compound 1.265 µM
  relative viability: 0.367
[3]; first compound 4 µM
  relative viability: 0.411
[4]; first compound 0.04 µM
  relative viability: 0.561
[4]; first compound 0.1265 µM
  relative viability: 0.61
[4]; first compound 0.4 µM
  relative viability: 0.588
[4]; first compound 1.265 µM
  relative viability: 0.489
[4]; first compound 4 µM
  relative viability: 0.578

## NCI-H358
[1]; first compound 0.03162 µM
  relative viability: 0.872
[1]; first compound 0.3162 µM
  relative viability: 1.16
[1]; first compound 1 µM
  relative viability: 0.809
[2]; first compound 0.01 µM
  relative viability: 0.334
[2]; first compound 0.03162 µM
  relative viability: 0.333
[2]; first compound 0.1 µM
  relative viability: 0.273
[2]; first compound 0.3162 µM
  relative viability: 0.267
[2]; first compound 1 µM
  relative viability: 0.284
[3]; first compound 0.04 µM
  relative viability: 0.138
[3]; first compound 0.1265 µM
  relative viability: 0.118
[3]; first compound 0.4 µM
  relative viability: 0.128
[3]; first compound 1.265 µM
  relative viability: 0.11
[3]; first compound 4 µM
  relative viability: 0.1
[4]; first compound 0.04 µM
  relative viability: 0.196
[4]; first compound 0.1265 µM
  relative viability: 0.163
[4]; first compound 0.4 µM
  relative viability: 0.145
[4]; first compound 1.265 µM
  relative viability: 0.143
[4]; first compound 4 µM
  relative viability: 0.145

## NCI-H441
[1]; first compound 0.03162 µM
  relative viability: 0.791
[1]; first compound 0.1 µM
  relative viability: 0.741
[1]; first compound 1 µM
  relative viability: 0.534
[2]; first compound 0.01 µM
  relative viability: 0.459
[2]; first compound 0.03162 µM
  relative viability: 0.312
[2]; first compound 0.1 µM
  relative viability: 0.491
[2]; first compound 0.3162 µM
  relative viability: 0.312
[2]; first compound 1 µM
  relative viability: 0.257
[3]; first compound 0.04 µM
  relative viability: 0.472
[3]; first compound 0.1265 µM
  relative viability: 0.383
[3]; first compound 0.4 µM
  relative viability: 0.388
[3]; first compound 1.265 µM
  relative viability: 0.247
[3]; first compound 4 µM
  relative viability: 0.263
[4]; first compound 0.04 µM
  relative viability: 0.273
[4]; first compound 0.1265 µM
  relative viability: 0.269
[4]; first compound 0.4 µM
  relative viability: 0.28
[4]; first compound 1.265 µM
  relative viability: 0.264
[4]; first compound 4 µM
  relative viability: 0.272

## NCI-H460
[1]; first compound 0.03162 µM
  relative viability: 0.349
[1]; first compound 0.1 µM
  relative viability: 0.357
[1]; first compound 0.3162 µM
  relative viability: 0.631
[1]; first compound 1 µM
  relative viability: 0.593
[2]; first compound 0.01 µM
  relative viability: 0.274
[2]; first compound 0.03162 µM
  relative viability: 0.416
[2]; first compound 0.1 µM
  relative viability: 0.295
[2]; first compound 0.3162 µM
  relative viability: 0.314
[2]; first compound 1 µM
  relative viability: 0.211
[3]; first compound 0.04 µM
  relative viability: 0.093
[3]; first compound 0.1265 µM
  relative viability: 0.161
[3]; first compound 0.4 µM
  relative viability: 0.155
[3]; first compound 1.265 µM
  relative viability: 0.0725
[3]; first compound 4 µM
  relative viability: 0.0881
[4]; first compound 0.04 µM
  relative viability: 0.0625
[4]; first compound 0.1265 µM
  relative viability: 0.0624
[4]; first compound 0.4 µM
  relative viability: 0.0552
[4]; first compound 1.265 µM
  relative viability: 0.0558
[4]; first compound 4 µM
  relative viability: 0.033

## NCI-H520
[1]; first compound 0.03162 µM
  relative viability: 0.979
[1]; first compound 0.1 µM
  relative viability: 1.05
[1]; first compound 0.3162 µM
  relative viability: 0.94
[1]; first compound 1 µM
  relative viability: 0.793
[2]; first compound 0.01 µM
  relative viability: 0.31
[2]; first compound 0.03162 µM
  relative viability: 0.268
[2]; first compound 0.1 µM
  relative viability: 0.219
[2]; first compound 0.3162 µM
  relative viability: 0.17
[2]; first compound 1 µM
  relative viability: 0.145
[3]; first compound 0.04 µM
  relative viability: 0.62
[3]; first compound 0.1265 µM
  relative viability: 0.574
[3]; first compound 0.4 µM
  relative viability: 0.549
[3]; first compound 1.265 µM
  relative viability: 0.491
[3]; first compound 4 µM
  relative viability: 0.429
[4]; first compound 0.04 µM
  relative viability: 0.609
[4]; first compound 0.1265 µM
  relative viability: 0.716
[4]; first compound 0.4 µM
  relative viability: 0.707
[4]; first compound 1.265 µM
  relative viability: 0.557
[4]; first compound 4 µM
  relative viability: 0.413

## NCI-H596
[1]; first compound 0.03162 µM
  relative viability: 0.526
[1]; first compound 0.1 µM
  relative viability: 0.48
[1]; first compound 0.3162 µM
  relative viability: 0.475
[1]; first compound 1 µM
  relative viability: 0.42
[2]; first compound 0.01 µM
  relative viability: 0.41
[2]; first compound 0.03162 µM
  relative viability: 0.435
[2]; first compound 0.1 µM
  relative viability: 0.361
[2]; first compound 0.3162 µM
  relative viability: 0.317
[2]; first compound 1 µM
  relative viability: 0.311
[3]; first compound 0.04 µM
  relative viability: 0.801
[3]; first compound 0.1265 µM
  relative viability: 0.815
[3]; first compound 0.4 µM
  relative viability: 0.708
[3]; first compound 1.265 µM
  relative viability: 0.48
[3]; first compound 4 µM
  relative viability: 0.44
[4]; first compound 0.04 µM
  relative viability: 0.44
[4]; first compound 0.1265 µM
  relative viability: 0.446
[4]; first compound 0.4 µM
  relative viability: 0.503
[4]; first compound 1.265 µM
  relative viability: 0.41
[4]; first compound 4 µM
  relative viability: 0.42

## NCI-H647
[1]; first compound 0.03162 µM
  relative viability: 0.898
[1]; first compound 0.1 µM
  relative viability: 1.12
[1]; first compound 0.3162 µM
  relative viability: 0.995
[1]; first compound 1 µM
  relative viability: 0.891
[2]; first compound 0.01 µM
  relative viability: 0.395
[2]; first compound 0.03162 µM
  relative viability: 0.398
[2]; first compound 0.1 µM
  relative viability: 0.234
[2]; first compound 0.3162 µM
  relative viability: 0.276
[2]; first compound 1 µM
  relative viability: 0.15
[3]; first compound 0.04 µM
  relative viability: 0.44
[3]; first compound 0.1265 µM
  relative viability: 0.473
[3]; first compound 0.4 µM
  relative viability: 0.523
[3]; first compound 1.265 µM
  relative viability: 0.348
[3]; first compound 4 µM
  relative viability: 0.481
[4]; first compound 0.04 µM
  relative viability: 0.182
[4]; first compound 0.1265 µM
  relative viability: 0.168
[4]; first compound 0.4 µM
  relative viability: 0.193
[4]; first compound 1.265 µM
  relative viability: 0.161
[4]; first compound 4 µM
  relative viability: 0.155

## NCI-H650
[1]; first compound 0.03162 µM
  relative viability: 0.954
[1]; first compound 0.1 µM
  relative viability: 1.12
[1]; first compound 0.3162 µM
  relative viability: 0.621
[1]; first compound 1 µM
  relative viability: 0.781
[2]; first compound 0.01 µM
  relative viability: 0.882
[2]; first compound 0.03162 µM
  relative viability: 0.745
[2]; first compound 0.1 µM
  relative viability: 0.702
[2]; first compound 0.3162 µM
  relative viability: 0.452
[2]; first compound 1 µM
  relative viability: 0.345
[3]; first compound 0.04 µM
  relative viability: 0.996
[3]; first compound 0.1265 µM
  relative viability: 0.921
[3]; first compound 0.4 µM
  relative viability: 0.962
[3]; first compound 1.265 µM
  relative viability: 0.749
[3]; first compound 4 µM
  relative viability: 0.774
[4]; first compound 0.04 µM
  relative viability: 0.909
[4]; first compound 0.1265 µM
  relative viability: 0.923
[4]; first compound 0.4 µM
  relative viability: 0.879
[4]; first compound 1.265 µM
  relative viability: 0.794
[4]; first compound 4 µM
  relative viability: 0.757
